According to patent publication US10375956B2, “Herbicidally active 2-(substituted-phenyl)-cyclopentane-1,3-dione compounds and derivatives thereof” (Syngenta Limited, priority 2013, dated 2019):

Experiments:
Type in all cases: in vivo
Avena fatua (AVEFA) = test: Test 1 glasshouse assay, post-emergence herbicidal activity; conditions: 312 h, post-emergence (Example 1B Table 2), after 13 days, read-out: Percentage phytotoxicity AVEFA
Protocol: (§1) Seeds of a variety of test species are sown in standard soil in pots. After cultivation for one day (pre-emergence) or after 8 days cultivation (post-emergence) under controlled conditions in a glasshouse (at 24/16° C., day/night; 14 hours light; 65% humidity), the plants are sprayed with an aqueous spray solution derived from the formulation of the “technical” (i.e. unformulated) active ingredient in acetone/water (50:50) solution containing 0.5% Tween 20 (polyoxyethylene sorbitan monolaurate, CAS Registry Number 9005-64-5). The test plants are then grown on under controlled conditions in a glasshouse (at 24/16° C., day/night; 14 hours light; 65% humidity) and watered twice daily. After 13 days for pre- or post-emergence, the test is evaluated visually, and an assessed percentage phytotoxicity score is given for each herbicidal application on each plant species (where 100%=total damage to plant; 0%=no damage to plant).
(§2) Lolium perenne (LOLPE), Alopecurus myosuroides (ALOMY), Echinochloa crus-galli (ECHCG), and Avena fatua (AVEFA); these are all grassy monocotyledonous weeds. Cool climate crop plant: Triticum aestivum (TRZAW, winter wheat).

[1] = tested on: Triticum aestivum (TRZAW, winter wheat); test: as above; conditions: 312 h, post-emergence (Example 1B Table 2), after 13 days, crop plant, read-out: Percentage phytotoxicity TRZAW
Protocol: as §1, §2

Lolium perenne (LOLPE) = test: as above; conditions: 312 h, post-emergence (Example 1B Table 2), after 13 days, read-out: Percentage phytotoxicity LOLPE
Protocol: as §1, §2

[2] = tested on: Alopecurus myosuroides (ALOMY); test: Test 1 glasshouse assay, pre-emergence herbicidal activity; conditions: 312 h, visual evaluation after 13 days, read-out: Percentage phytotoxicity ALOMY
Protocol: as §1
(§3) Test plants include the following: Abutilon theophrasti (ABUTH), Amaranthus retroflexus (AMARE): these are dicotyledonous (broadleaved) weeds. Setaria faberi (SETFA), Alopecurus myosuroides (ALOMY), Echinochloa crus-galli (ECHCG): these are grassy monocotyledonous weeds. Also: Zea mays (ZEAMX, corn/maize), which can be a grassy weed (“volunteer” corn) in some circumstances.

[3] = tested on: Echinochloa crus-galli (ECHCG); test: as above; conditions: 312 h, visual evaluation after 13 days, read-out: Percentage phytotoxicity ECHCG
Protocol: as §1, §3

[4] = tested on: Alopecurus myosuroides (ALOMY); test: Test 1 glasshouse assay, post-emergence herbicidal activity; conditions: 312 h, after 13 days, read-out: Percentage phytotoxicity ALOMY
Protocol: as §1
(§4) Test plants include the following: Abutilon theophrasti (ABUTH) and Amaranthus retroflexus (AMARE); these are all dicotyledonous (broadleaved) weeds. Setaria faberi (SETFA), Alopecurus myosuroides (ALOMY), and Echinochloa crus-galli (ECHCG); these are all grassy monocotyledonous weeds. Also: Zea mays (ZEAMX, corn/maize), which can be a grassy weed (“volunteer” corn) in some circumstances.
as §2

[5] = tested on: Echinochloa crus-galli (ECHCG); test: as above; conditions: 312 h, after 13 days, read-out: Percentage phytotoxicity ECHCG
Protocol: as §1, §4, §2

[6] = tested on: Amaranthus retroflexus (AMARE); test: as above; conditions: 312 h, post-emergence (Example 1B Table 1), after 13 days, read-out: Percentage phytotoxicity AMARE
Protocol: as §1, §4

Setaria faberi (SETFA) [7] = test: as above; conditions: 312 h, post-emergence (Example 1B Table 1), after 13 days, read-out: Percentage phytotoxicity SETFA
Protocol: as §1, §4

[8] = tested on: Abutilon theophrasti (ABUTH); test: as above; conditions: 312 h, post-emergence (Example 1B Table 1), after 13 days, read-out: Percentage phytotoxicity ABUTH
Protocol: as §1, §4

[9] = tested on: Zea mays (ZEAMX, corn/maize); test: as above; conditions: 312 h, post-emergence (Example 1B Table 1), after 13 days, read-out: Percentage phytotoxicity ZEAMX
Protocol: as §1, §4

[10] = tested on: Abutilon theophrasti (ABUTH); test: Test 1 glasshouse assay, pre-emergence herbicidal activity; conditions: 312 h, visual evaluation after 13 days, read-out: Percentage phytotoxicity ABUTH
Protocol: as §1, §3

[11] = tested on: Zea mays (ZEAMX, corn/maize); test: as above; conditions: 312 h, visual evaluation after 13 days, read-out: Percentage phytotoxicity ZEAMX
Protocol: as §1, §3

[12] = tested on: Amaranthus retroflexus (AMARE); test: as above; conditions: 312 h, visual evaluation after 13 days, read-out: Percentage phytotoxicity AMARE
Protocol: as §1, §3

Setaria faberi (SETFA) [13] = test: as above; conditions: 312 h, visual evaluation after 13 days, read-out: Percentage phytotoxicity SETFA
Protocol: as §1, §3

[14] = post-emergence (Example 1B Table 2)
[15] = post-emergence (Example 1B Table 1)
[16] = post-emergence (Example 1B Table 1), 8 g/ha

| Compound | pest or weed control at 62.5 g/ha (Avena fatua (AVEFA)) | pest or weed control at 250 g/ha (Avena fatua (AVEFA)) | plant injury at 62.5 g/ha [1] | plant injury at 250 g/ha [1] | pest or weed control at 62.5 g/ha (Lolium perenne (LOLPE)) | pest or weed control at 250 g/ha (Lolium perenne (LOLPE)) | pest or weed control at 250 g/ha [2] | pest or weed control at 250 g/ha [3] | pest or weed control at 62.5 g/ha [4, 14] | pest or weed control at 250 g/ha [4, 14] | pest or weed control at 62.5 g/ha [5, 14] | pest or weed control at 250 g/ha [5, 14] | pest or weed control at 250 g/ha [6] | pest or weed control at 250 g/ha (Setaria faberi (SETFA) [7]) | pest or weed control at 250 g/ha [4, 15] | pest or weed control at 250 g/ha [5, 15] | pest or weed control at 250 g/ha [8] | pest or weed control at 250 g/ha [9] | pest or weed control at 250 g/ha [10] | pest or weed control at 250 g/ha [11] | also measured |
| --- | --- | --- | --- | --- | --- | --- | --- | --- | --- | --- | --- | --- | --- | --- | --- | --- | --- | --- | --- | --- | --- |
| C#Cc1cc(C)c(C2C(=O)CC(CC#CC)C2=O)c(C)c1 (centres unmarked) [Compound A28] | 80% | 90% | 30% | 80% | 80% | 90% | 90% | 100% | 70% | 100% | 90% | 100% | – | – | – | – | – | – | – | – | – |
| C#CCC1CC(=O)C(c2c(C)cc(C#C)cc2C)C1=O (centres unmarked) [Compound A27] | 90% | 100% | 80% | 90% | 80% | 100% | 100% | 100% | 90% | 100% | 90% | 100% | – | – | – | – | – | – | – | – | – |
| C#CCC1CC(=O)C(c2c(Br)cc(C)cc2Br)C1=O (centres unmarked) [Compound A26] | – | 70% | – | 10% | – | 100% | 30% | 80% | – | 60% | – | 100% | – | – | – | – | – | – | – | – | – |
| C#CCC1CC(=O)C(c2ccc(-c3ccc(Cl)cc3)cc2C)C1=O (centres unmarked) [Compound A43] | – | – | – | – | – | – | – | – | – | – | – | – | 0% | 70% | 20% | 20% | – | – | – | – | – |
| C#CCC1CC(=O)C(c2c(C)cc(-n3cc(Cl)cn3)cc2C)C1=O (centres unmarked) [Compound A9] | – | – | – | – | – | – | 70% | 100% | – | – | – | – | 80% | 100% | 100% | 100% | 80% | 100% | 40% | 80% | pest or weed control at 250 g/ha [12]: 70%; pest or weed control at 250 g/ha (Setaria faberi (SETFA) [13]): 100% |
| C#CCC1C(=O)C(c2cc(-c3ccc(Cl)cc3)ccc2C)C(=O)C1CC#C (centres unmarked) [Compound A44] | – | – | – | – | – | – | – | – | – | – | – | – | 0% | 0% | 0% | 0% | 10% | 20% | – | – | pest or weed control at 8 g/ha ([8]; 8 g/ha): 0%; pest or weed control at 8 g/ha ([9]; 8 g/ha): 30%; pest or weed control at 8 g/ha ([6]; 8 g/ha): 0%; pest or weed control at 8 g/ha (Setaria faberi (SETFA) [7]; 8 g/ha): 0%; pest or weed control at 8 g/ha [4, 16]: 0%; pest or weed control at 8 g/ha [5, 16]: 0% |
| C#CCC1CC(=O)C(c2cc(-c3ccc(Cl)cc3)ccc2C)C1=O (centres unmarked) [Compound A16] | – | – | – | – | – | – | 90% | 90% | – | – | – | – | 60% | 90% | 90% | 100% | 40% | 60% | 40% | 80% | pest or weed control at 30 g/ha [8]: 40%; pest or weed control at 30 g/ha [9]: 80%; pest or weed control at 30 g/ha [6]: 0%; pest or weed control at 30 g/ha (Setaria faberi (SETFA) [7]): 80%; pest or weed control at 250 g/ha [12]: 40%; pest or weed control at 250 g/ha (Setaria faberi (SETFA) [13]): 90%; pest or weed control at 30 g/ha [4, 15]: 70%; pest or weed control at 30 g/ha [5, 15]: 40% |
| C#CCC1CC(=O)C(c2c(F)cc(-c3ccc(F)cc3)cc2Cl)C1=O (centres unmarked) [Compound A4] | – | – | – | – | – | – | 90% | 100% | – | – | – | – | 80% | 100% | 100% | 100% | 80% | 100% | 0% | 100% | pest or weed control at 30 g/ha [8]: 40%; pest or weed control at 30 g/ha [9]: 100%; pest or weed control at 30 g/ha [6]: 60%; pest or weed control at 30 g/ha (Setaria faberi (SETFA) [7]): 100%; pest or weed control at 250 g/ha [12]: 80%; pest or weed control at 250 g/ha (Setaria faberi (SETFA) [13]): 100%; pest or weed control at 30 g/ha [4, 15]: 70%; pest or weed control at 30 g/ha [5, 15]: 90% |
| CC#CCC1CC(=O)C(c2c(C)cc(C)cc2C)C1=O (centres unmarked) [Compound A24] | 60% | 50% | 0% | 0% | 70% | 80% | 100% | 100% | 60% | 80% | 70% | 80% | – | – | – | – | – | – | – | – | – |
| C#CCC1CC(=O)C(c2c(Cl)cccc2Cl)C1=O (centres unmarked) [Compound A29] | 0% | 60% | 60% | 80% | 60% | 80% | 70% | 90% | 60% | 80% | 90% | 100% | – | – | – | – | – | – | – | – | – |
